In paper PMC8557474, “Reliability of the AR-CALUX®In Vitro Method Used to Detect Chemicals with (Anti)Androgen Activity: Results of an International Ring Trial” (Toxicological Sciences, 2021):
pEC50: −log10 of the molar value. In brackets after ≈: the same amount, converted by molar mass.

Columns and labels:
[1] = biological target: T1, human androgen receptor (hAR) (Homo sapiens, UniProt P10275); experiment: cell-based; format: cell-based
T1 construct: host or cells: U2-OS human osteosarcoma cells (ATCC HTB 96), stably transfected (AR-CALUX cell line)
T1 sequence (P10275 1-920): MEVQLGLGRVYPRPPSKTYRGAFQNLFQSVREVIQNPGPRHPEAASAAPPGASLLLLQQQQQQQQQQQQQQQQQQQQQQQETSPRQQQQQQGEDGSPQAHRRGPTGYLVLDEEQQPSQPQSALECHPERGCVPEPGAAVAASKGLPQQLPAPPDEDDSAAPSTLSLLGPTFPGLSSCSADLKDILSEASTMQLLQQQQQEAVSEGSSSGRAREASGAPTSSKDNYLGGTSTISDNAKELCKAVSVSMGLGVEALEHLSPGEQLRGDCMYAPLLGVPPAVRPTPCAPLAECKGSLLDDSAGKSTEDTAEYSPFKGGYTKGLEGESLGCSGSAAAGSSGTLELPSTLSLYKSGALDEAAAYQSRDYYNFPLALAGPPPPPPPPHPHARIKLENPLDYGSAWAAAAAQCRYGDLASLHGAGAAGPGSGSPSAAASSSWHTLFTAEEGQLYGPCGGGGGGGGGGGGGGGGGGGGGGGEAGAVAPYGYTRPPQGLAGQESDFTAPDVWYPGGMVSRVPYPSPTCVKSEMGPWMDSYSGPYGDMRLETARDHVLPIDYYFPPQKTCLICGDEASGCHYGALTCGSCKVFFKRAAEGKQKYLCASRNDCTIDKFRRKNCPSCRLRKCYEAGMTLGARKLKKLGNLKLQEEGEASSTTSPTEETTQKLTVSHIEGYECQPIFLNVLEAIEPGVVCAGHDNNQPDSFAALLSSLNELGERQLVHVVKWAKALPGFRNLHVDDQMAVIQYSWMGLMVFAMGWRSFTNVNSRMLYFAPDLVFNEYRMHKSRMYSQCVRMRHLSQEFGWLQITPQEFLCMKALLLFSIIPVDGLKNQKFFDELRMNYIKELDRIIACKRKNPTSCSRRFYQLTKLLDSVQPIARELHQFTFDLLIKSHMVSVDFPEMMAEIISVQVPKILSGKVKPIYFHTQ
Text: (§1) The AR-CALUX® cell line was created by BioDetection Systems (BDS). It can be purchased from BDS with a license (https://www.biodetectionsystems.com). The human osteosarcoma cell line U2-OS (ATCC HTB 96) was transfected with 2 constructs: pSG5-neo-hAR carrying the cDNA of a human androgen receptor (hAR) under a constitutive promoter, and, a luciferase reporter gene which is preceded by a triple tandem of AREs in front of a TATA box (3x ARE Luc). […] The AR-CALUX® cell line was obtained from the test method developer BDS. EURL ECVAM prepared a master cell bank and a large working cell bank which were tested for the absence of mycoplasma, bacteria, fungi, and yeast and for the absence of Hepatitis B and C and HIV. In addition, to verifying the authenticity of the cell line, Short Tandem Repeat (STR) profiling was carried out to confirm the test system to be U2-OS cells. […] The laboratories were requested, at the end of each part of the study (Parts 1, 2, and 3), to perform a mycoplasma test of their choice. Additional aliquots were sent to EURL ECVAM for a reanalysis of authenticity.
(§2) Subsequently, the test chemical was assessed with a prescreen run (dilution steps of 10) and simultaneously with the quantitative cytotoxicity test to determine (1) cytotoxic concentrations, (2) the response, and (3) the appropriate dose range to be tested. […] The cytotoxicity test was performed once more. Test chemicals were diluted in media and consisted of 8 serial dilutions. Each dilution was tested in triplicate.
(§3) Each experiment (run) was comprised of a maximum of 6 plates. The first plate would contain 8 serial dilutions of the reference chemical DHT (for agonism) or Flutamide (for antagonism), while the positive and negative controls were added at fixed concentrations. In addition, a solvent control was added (medium without the chemical but with DMSO 0.1%).
A. Positive when the relative induction (Yc) of the test item is ≥ 10% (REF RPC10) for two or more consecutive concentrations.

[2] = biological target: T1, human androgen receptor (hAR); experiment: AR-CALUX antagonist assay (medium spiked with DHT at EC50); format: cell-based
Text: as §1, §2, §3
For the antagonist assay, the medium was supplemented with DHT at EC50 concentration (standard assay). […] Each antagonist assay was accompanied by a specificity control test carried out on the same plate.
A. Positive (competitive antagonist) when the relative induction (Yc) of the test item is ≤ 80% (REF RPC80) for two or more consecutive concentrations and […]

physchem = experiment: physchem
Method: It details the cell cultivation and seeding procedure, the preparation of the reference, control and test chemicals, the procedure for agonist testing and antagonist testing, prescreen runs, and comprehensive runs, as well as data analysis and data interpretation. This SOP also includes references to the SOPs for solubility testing and cytotoxicity testing. […] Solubility was tested both in the solvent and in media under similar circumstances as would be required during the (ant)agonist testing. The initial concentration to be tested was prescribed at 50 mg/ml. Starting from the highest soluble concentration, cytotoxicity was determined with an LDH assay. Visual checking of cytotoxicity in all wells of the plate was however also required for each run.
This included an investigation by heating, centrifugation, microscopy, and visual checking. […] For the purpose of the validation study, the labs were requested to start from 50 mg/ml as the maximal stock concentration to be tested.

[3] = aqueous buffer, kinetic from dmso stock, Solubility in medium, Lab 1, assay medium, Lab 1
[4] = aqueous buffer, kinetic from dmso stock, Solubility in medium, Lab 2, assay medium, Lab 2
[5] = aqueous buffer, kinetic from dmso stock, Solubility in medium, Lab 3, assay medium, Lab 3
[6] = aqueous buffer, kinetic from dmso stock, Solubility in medium, Lab 4, assay medium, Lab 4
[7] = organic solvent or mixture, thermodynamic from solid, Solubility in DMSO, Lab 1, DMSO, Lab 1, highest tested 50 mg/ml
[8] = organic solvent or mixture, thermodynamic from solid, Solubility in DMSO, Lab 2, DMSO, Lab 2, highest tested 50 mg/ml
[9] = organic solvent or mixture, thermodynamic from solid, Solubility in DMSO, Lab 3, DMSO, Lab 3, highest tested 50 mg/ml
[10] = organic solvent or mixture, thermodynamic from solid, Solubility in DMSO, Lab 4, DMSO, Lab 4, highest tested 50 mg/ml

## C[C@]12C=CC3=C4CCC(=O)C=C4CC[C@H]3[C@@H]1CC[C@@H]2O [17β-Trenbolone]
[1]
  Agonist classification per run, Lab 1: P P P
  Agonist classification per run, Lab 2: P P P
  Agonist classification per run, Lab 3: P P P
  Agonist classification per run, Lab 4: P P P
  pEC50: 9.61
[2]
  Antagonist classification per run, Lab 1: N N N
  Antagonist classification per run, Lab 2: N N N
  Antagonist classification per run, Lab 3: − N N
  Antagonist classification per run, Lab 4: N N N

## CCCCOC(=O)c1ccccc1C(=O)OCc1ccccc1 [Benzylbutyl phthalate]
physchem; [3]
  solubility: 1.5 µg/mL (≈ 4.8 µM)
physchem; [4]
  solubility: > 50 µg/mL
physchem; [5]
  solubility: 15 µg/mL (≈ 48 µM)
physchem; [6]
  solubility: 15 µg/mL (≈ 48 µM)
physchem; [7]
  solubility: > 50000 µg/mL
physchem; [8]
  solubility: > 50000 µg/mL
physchem; [9]
  solubility: > 50000 µg/mL
physchem; [10]
  solubility: > 50000 µg/mL

## C[C@]12Cc3c[nH]nc3C[C@@H]1CC[C@@H]1[C@@H]2CC[C@@]2(C)[C@H]1CC[C@]2(C)O [Stanozolol]
physchem; [3]
  solubility: 5 µg/mL (≈ 15.2 µM)
physchem; [4]
  solubility: 5 µg/mL (≈ 15.2 µM)
physchem; [5]
  solubility: 2 µg/mL (≈ 6.09 µM)
physchem; [6]
  solubility: 5 µg/mL (≈ 15.2 µM)
physchem; [7]
  solubility: 5000 µg/mL (≈ 15200 µM)
physchem; [8]
  solubility: > 50000 µg/mL
physchem; [9]
  solubility: 15000 µg/mL (≈ 45700 µM)
physchem; [10]
  solubility: > 50000 µg/mL

## CC(O)(CS(=O)(=O)c1ccc(F)cc1)C(=O)Nc1ccc(C#N)c(C(F)(F)F)c1 (stereo not shown) [Bicalutamide]
physchem; DMSO, organic solvent or mixture, thermodynamic from solid, Solubility in DMSO, Lab 1, DMSO, Lab 1, highest tested 50 mg/ml
  solubility: > 50000 µg/mL
physchem; DMSO, organic solvent or mixture, thermodynamic from solid, Solubility in DMSO, Lab 2, DMSO, Lab 2, highest tested 50 mg/ml
  solubility: > 50000 µg/mL
physchem; DMSO, organic solvent or mixture, thermodynamic from solid, Solubility in DMSO, Lab 3, DMSO, Lab 3, highest tested 50 mg/ml
  solubility: > 50000 µg/mL
physchem; DMSO, organic solvent or mixture, thermodynamic from solid, Solubility in DMSO, Lab 4, DMSO, Lab 4, highest tested 50 mg/ml
  solubility: > 50000 µg/mL
physchem; assay medium, aqueous buffer, kinetic from dmso stock, Solubility in medium, Lab 1, assay medium, Lab 1
  solubility: > 50 µg/mL
physchem; assay medium, aqueous buffer, kinetic from dmso stock, Solubility in medium, Lab 2, assay medium, Lab 2
  solubility: > 50 µg/mL
physchem; assay medium, aqueous buffer, kinetic from dmso stock, Solubility in medium, Lab 3, assay medium, Lab 3
  solubility: > 50 µg/mL
physchem; assay medium, aqueous buffer, kinetic from dmso stock, Solubility in medium, Lab 4, assay medium, Lab 4
  solubility: > 50 µg/mL

## C=CC1(C)OC(=O)N(c2cc(Cl)cc(Cl)c2)C1=O (stereo not shown) [Vinclozolin]
physchem; [3]
  solubility: 5 µg/mL (≈ 17.5 µM)
physchem; [4]
  solubility: 15 µg/mL (≈ 52.4 µM)
physchem; [5]
  solubility: 15 µg/mL (≈ 52.4 µM)
physchem; [6]
  solubility: 15 µg/mL (≈ 52.4 µM)
physchem; [7]
  solubility: > 50000 µg/mL
physchem; [8]
  solubility: > 50000 µg/mL
physchem; [9]
  solubility: > 50000 µg/mL
physchem; [10]
  solubility: > 50000 µg/mL

## CCCCC(CC)COC(=O)c1ccccc1C(=O)OCC(CC)CCCC (stereo not shown) [Diethylhexyl phthalate]
physchem; DMSO, Lab 1, highest tested 50 mg/ml
  Solubility in DMSO, Lab 1: 15000 µg/mL (≈ 38400 µM)
physchem; DMSO, Lab 2, highest tested 50 mg/ml
  Solubility in DMSO, Lab 2: > 50000 µg/mL
physchem; DMSO, Lab 3, highest tested 50 mg/ml
  Solubility in DMSO, Lab 3: > 50000 µg/mL
physchem; DMSO, Lab 4, highest tested 50 mg/ml
  Solubility in DMSO, Lab 4: > 50000 µg/mL
physchem; assay medium, Lab 1
  Solubility in medium, Lab 1: 15 µg/mL (≈ 38.4 µM)
physchem; assay medium, Lab 2
  Solubility in medium, Lab 2: 15 µg/mL (≈ 38.4 µM)
physchem; assay medium, Lab 3
  Solubility in medium, Lab 3: > 50 µg/mL
physchem; assay medium, Lab 4
  Solubility in medium, Lab 4: > 50 µg/mL
